# Assay results as given in ChEMBL document CHEMBL3102707, “Synthesis and structure-activity relationship of 2-adamantylmethyl tetrazoles as potent and selective inhibitors of human 11β-hydroxysteroid dehydrogenase type 1 (11β-HSD1)” (Bioorg Med Chem Lett, 2014).
# Key:
# [1] = Drug level in mouse liver at 10 mg/kg, po after 3 hrs; type: ADME, organism-based; parameters: dose 10 mg/kg, route oral; details: read-out: Drug uptake
# [2] = Plasma concentration in mouse at 10 mg/kg, po after 3 hrs; type: ADME, organism-based; parameters: dose 10 mg/kg, route oral
# [3] = Drug level in mouse adipose tissue at 10 mg/kg, po after 3 hrs; type: ADME, organism-based; parameters: dose 10 mg/kg, route oral; details: read-out: Drug uptake
# [4] = Aqueous solubility of the compound; type: physicochemical; details: buffer
Compound,concentration at 3 h [1],concentration at 3 h [2],concentration at 3 h [3],solubility [4]
"OC1C2CC3CC1CC(C2)C3(Cc1nnn[nH]1)c1ccc(-c2ccc(F)cc2)cc1 (single isomer, unassigned; enantiomer 1)",13900 nM,1560 nM,160 nM,–
c1ccc(-c2ccc(C3(Cc4nnn[nH]4)C4CC5CC(C4)CC3C5)cc2)cc1 (configuration not stated),–,–,–,soluble
N#Cc1ccc(-c2ccc(C3(Cc4nnn[nH]4)C4CC5CC3CC(C4)C5O)cc2)cc1 (racemic),23700 nM,820 nM,< 75 nM,–
